From the supplement of paper PMC10307832

Key:
Experiment in all cases: relative viability (nuclei count vs DMSO), 5 days (fraction); higher = more cells survive
Bleomycin + Tozasertib = compound: CC1=C(N=C(N=C1N)[C@H](CC(=O)N)NC[C@@H](C(=O)N)N)C(=O)N[C@@H]([C@H](C2=CN=CN2)OC3C(C(C(C(O3)CO)O)O)OC4C(C(C(C(O4)CO)O)OC(=O)N)O)C(=O)N[C@H](C)[C@H]([C@H](C)C(=O)N[C@@H]([C@@H](C)O)C(=O)NCCC5=NC(=CS5)C6=NC(=CS6)C(=O)NCCC[S+](C)C)O [Bleomycin] + Cc1cc(Nc2cc(N3CCN(C)CC3)nc(Sc3ccc(NC(=O)C4CC4)cc3)n2)n[nH]1 [Tozasertib] (partner 0.1 µM); details: main component drawn
Procedure, shortened: (§1)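 Values are medians from duplicate plates. Each reflects relative viability, defined as the nuclei count of treated wells over that of vehicle wells. Lung cancer cell lines in 1536-well plates were pin-tool dosed one day after seeding with one drug alone or with a fixed anchor-drug dose plus five library-drug doses (not always all listed) in √10 steps, then fixed, stained and imaged at 4× after 5 days.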

Etoposide + Palbociclib = compound: COc1cc([C@@H]2c3cc4c(cc3[C@@H](O[C@@H]3O[C@@H]5CO[C@@H](C)O[C@H]5[C@H](O)[C@H]3O)[C@H]3COC(=O)[C@H]23)OCO4)cc(OC)c1O [Etoposide] + CC(=O)c1c(C)c2cnc(Nc3ccc(N4CCNCC4)cn3)nc2n(C2CCCC2)c1=O [Palbociclib] (partner 0.5 µM)
Procedure, shortened: as §1

Etoposide + Olaparib = compound: COc1cc([C@@H]2c3cc4c(cc3[C@@H](O[C@@H]3O[C@@H]5CO[C@@H](C)O[C@H]5[C@H](O)[C@H]3O)[C@H]3COC(=O)[C@H]23)OCO4)cc(OC)c1O [Etoposide] + O=C(c1cc(Cc2n[nH]c(=O)c3ccccc23)ccc1F)N1CCN(C(=O)C2CC2)CC1 [Olaparib] (partner 8 µM)
Procedure, shortened: as §1

Etoposide + Lapatinib = compound: COc1cc([C@@H]2c3cc4c(cc3[C@@H](O[C@@H]3O[C@@H]5CO[C@@H](C)O[C@H]5[C@H](O)[C@H]3O)[C@H]3COC(=O)[C@H]23)OCO4)cc(OC)c1O [Etoposide] + CS(=O)(=O)CCNCc1ccc(-c2ccc3ncnc(Nc4ccc(OCc5cccc(F)c5)c(Cl)c4)c3c2)o1 [Lapatinib] (partner 2 µM)
Procedure, shortened: as §1

## UMC-11
Bleomycin + Tozasertib; first compound 0.01 µM
  relative viability: 0.185
Bleomycin + Tozasertib; first compound 0.03162 µM
  relative viability: 0.196
Bleomycin + Tozasertib; first compound 0.1 µM
  relative viability: 0.208
Bleomycin + Tozasertib; first compound 0.3162 µM
  relative viability: 0.203
Bleomycin + Tozasertib; first compound 1 µM
  relative viability: 0.18
Etoposide + Palbociclib; first compound 0.01 µM
  relative viability: 0.327
Etoposide + Palbociclib; first compound 0.03162 µM
  relative viability: 0.308
Etoposide + Palbociclib; first compound 0.1 µM
  relative viability: 0.312
Etoposide + Palbociclib; first compound 0.3162 µM
  relative viability: 0.313
Etoposide + Palbociclib; first compound 1 µM
  relative viability: 0.298
Etoposide + Olaparib; first compound 0.01 µM
  relative viability: 0.326
Etoposide + Olaparib; first compound 0.03162 µM
  relative viability: 0.331
Etoposide + Olaparib; first compound 0.1 µM
  relative viability: 0.311
Etoposide + Olaparib; first compound 0.3162 µM
  relative viability: 0.27
Etoposide + Olaparib; first compound 1 µM
  relative viability: 0.28
Etoposide + Lapatinib; first compound 0.01 µM
  relative viability: 0.973
Etoposide + Lapatinib; first compound 0.03162 µM
  relative viability: 1.05
Etoposide + Lapatinib; first compound 0.1 µM
  relative viability: 0.407
Etoposide + Lapatinib; first compound 0.3162 µM
  relative viability: 0.46
Etoposide + Lapatinib; first compound 1 µM
  relative viability: 0.239
